Test results from ChEMBL document CHEMBL4507273 (2021).

Experiments:
[1] = biological target: T1, Muscarinic acetylcholine receptor M1 (Homo sapiens) (UniProt P11229); details: Compound concentration 10.0 uM
T1 sequence (whole entry): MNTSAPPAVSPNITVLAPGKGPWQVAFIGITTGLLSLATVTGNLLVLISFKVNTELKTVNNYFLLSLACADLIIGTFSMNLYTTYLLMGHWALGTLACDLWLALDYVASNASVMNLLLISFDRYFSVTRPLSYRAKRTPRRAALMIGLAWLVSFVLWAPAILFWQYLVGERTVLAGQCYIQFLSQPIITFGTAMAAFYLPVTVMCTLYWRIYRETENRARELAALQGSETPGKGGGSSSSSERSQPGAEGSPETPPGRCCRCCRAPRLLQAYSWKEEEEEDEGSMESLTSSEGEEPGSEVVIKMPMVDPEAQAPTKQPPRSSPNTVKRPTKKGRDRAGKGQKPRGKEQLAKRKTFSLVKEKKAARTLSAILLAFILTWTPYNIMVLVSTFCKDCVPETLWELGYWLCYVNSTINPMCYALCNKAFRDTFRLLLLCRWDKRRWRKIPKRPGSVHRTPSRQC

Rattus norvegicus = species: Rattus norvegicus; details: Compound concentration 10.0 uM
[2] = biological target: Dual specificity tyrosine-phosphorylation-regulated kinase 1A (Homo sapiens) (UniProt Q13627); test: DYRK1A(h) Eurofins Kinase panel; details: Compound concentration 1.0 uM
[3] = biological target: NT-3 growth factor receptor (Homo sapiens) (UniProt Q16288); test: TrkC(h) Eurofins Kinase panel; details: Compound concentration 1.0 uM
[4] = biological target: Kappa-type opioid receptor (Homo sapiens, UniProt P41145); test: GPCRScan assay: inhibition of KOR; design: radioligand conc. used [nm] 0.6 – 1.2, parental cells stable HEK
Kappa-type opioid receptor, sequence (P41145 whole entry): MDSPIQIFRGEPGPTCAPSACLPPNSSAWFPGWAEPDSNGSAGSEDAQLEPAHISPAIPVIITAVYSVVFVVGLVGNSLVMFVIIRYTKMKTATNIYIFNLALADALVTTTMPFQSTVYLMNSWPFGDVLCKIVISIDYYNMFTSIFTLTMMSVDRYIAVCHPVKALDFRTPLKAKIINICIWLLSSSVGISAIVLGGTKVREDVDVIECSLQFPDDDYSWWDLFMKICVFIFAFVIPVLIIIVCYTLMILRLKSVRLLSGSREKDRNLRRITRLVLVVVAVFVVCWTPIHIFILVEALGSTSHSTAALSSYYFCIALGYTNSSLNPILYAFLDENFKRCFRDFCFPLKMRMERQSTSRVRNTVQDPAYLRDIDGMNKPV

NT-3 growth factor receptor (Homo sapiens), sequence (Q16288 32-839 limits assumed): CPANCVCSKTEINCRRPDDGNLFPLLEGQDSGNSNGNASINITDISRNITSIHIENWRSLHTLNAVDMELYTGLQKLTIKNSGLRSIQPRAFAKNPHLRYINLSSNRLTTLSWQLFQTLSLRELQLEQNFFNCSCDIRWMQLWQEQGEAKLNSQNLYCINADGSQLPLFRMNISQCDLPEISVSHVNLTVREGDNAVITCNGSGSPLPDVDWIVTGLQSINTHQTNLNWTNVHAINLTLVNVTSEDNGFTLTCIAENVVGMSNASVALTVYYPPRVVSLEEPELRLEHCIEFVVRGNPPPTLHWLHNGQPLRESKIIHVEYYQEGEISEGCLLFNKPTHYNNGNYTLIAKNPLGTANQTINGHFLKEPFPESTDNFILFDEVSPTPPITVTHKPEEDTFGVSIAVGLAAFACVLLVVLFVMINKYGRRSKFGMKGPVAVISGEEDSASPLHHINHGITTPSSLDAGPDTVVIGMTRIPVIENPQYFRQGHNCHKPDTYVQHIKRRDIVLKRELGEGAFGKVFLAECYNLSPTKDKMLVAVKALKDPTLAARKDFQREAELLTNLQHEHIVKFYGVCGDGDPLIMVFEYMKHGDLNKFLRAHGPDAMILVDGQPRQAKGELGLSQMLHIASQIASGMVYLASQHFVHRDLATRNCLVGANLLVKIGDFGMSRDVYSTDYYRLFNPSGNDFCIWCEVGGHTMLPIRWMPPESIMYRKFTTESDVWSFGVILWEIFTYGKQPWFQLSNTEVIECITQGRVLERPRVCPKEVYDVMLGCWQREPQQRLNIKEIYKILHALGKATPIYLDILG

SMILES	inhibition [1] [%]	inhibition (Rattus norvegicus) [%]	% residual kinase activity [2] [%]	% residual kinase activity [3] [%]	Ki ([4]; read-out: Ki) [nM]	Ki ([4]; read-out: pKi (converted)) [nM]
CNCc1ccccc1-c1csc([C@@H](C)Nc2nc(C)nc3cc(OC)c(OC)cc23)c1 [BAY-293]	94	13.1	68	80		
CNCc1ccccc1-c1csc([C@H](C)Nc2nc(C)nc3cc(OC)c(OC)cc23)c1 [BAY-294]					841	822
